# Test results from patent US11214803B2, “Modulators of YAP1 expression” (Ionis Pharmaceuticals, Inc., priority 2019, dated 2022).
# Strand notation (5' to 3'): a small letter for the sugar, then the base; units joined by * are phosphorothioate-linked, units joined directly phosphodiester-linked; [ ] holds rarer units or linkages, { } end groups; capitals alone tell only the bases. k = constrained ethyl (cEt); [5mC] = 5-methylcytosine; d = 2'-deoxy (DNA)
# Test system: Yap1 mRNA
# Test: Antisense inhibition of human Yap1 in A-431 cells by cEt gapmers, single dose (Example 3, RTS36584)
# Format: cell-based
# Settings: Table 8; A-431 cells, 5,000 cells per well, free uptake, 2,000 nM, approximately 48 hours; RTS36584; normalized to RIBOGREEN; Yap1 mRNA relative to untreated control cells
# Outline: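 Single-dose free-uptake screen of 3-10-3 cEt gapmers in A-431 cells at 2,000 nM over about 48 h. Values are % untreated control Yap1 mRNA.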
row,Substance,YAP1 (% UTC)
1,958385 (antisense kG*k[5mC]*kG*d[5mC]*dG*d[5mC]*dG*d[5mC]*dA*dT*dT*dG*dT*kG*k[5mC]*kA) [Compound 958385],115
2,958414 (antisense k[5mC]*kA*kG*dA*dA*dT*dT*d[5mC]*d[5mC]*d[5mC]*dA*dA*dG*k[5mC]*kT*kA) [Compound 958414],73
3,958405 (antisense kT*kT*kA*dT*dG*dG*dG*dA*dT*dG*dA*dG*dT*kG*k[5mC]*kT) [Compound 958405],24

# Same assay, conditions: Table 9; A-431 cells, 5,000 cells per well, free uptake, 2,000 nM, approximately 48 hours; RTS36584; normalized to RIBOGREEN; Yap1 mRNA relative to untreated control cells
row,Substance,YAP1 (% UTC)
1,958471 (antisense k[5mC]*kT*kT*dA*dG*dA*dT*d[5mC]*d[5mC]*dT*dT*d[5mC]*dA*k[5mC]*kA*kG) [Compound 958471],14
2,958466 (antisense kG*kT*k[5mC]*dA*dT*dT*dA*dA*dG*dG*dA*dT*dG*kT*k[5mC]*kA) [Compound 958466],9

# Same assay, conditions: Table 10; A-431 cells, 5,000 cells per well, free uptake, 2,000 nM oligonucleotide, approx. 48 hours; primer probe set RTS36584; Yap1 mRNA normalized to RIBOGREEN, percent of untreated control
row,Substance,YAP1 (% UTC)
1,958522 (kA*kA*kT*dT*dA*dG*dT*d[5mC]*d[5mC]*dA*dA*dG*dG*kG*kA*kG; antisense) [Compound 958522],32
2,958637 (antisense k[5mC]*k[5mC]*kG*d[5mC]*dA*dG*dA*dG*dA*dG*dA*dA*dA*k[5mC]*kT*k[5mC]) [Compound 958637],101

# Same assay, conditions: Table 11; A-431 cells, 5,000 cells per well, free uptake, 2,000 nM oligonucleotide, approx. 48 hours; primer probe set RTS36584; Yap1 mRNA normalized to RIBOGREEN, percent of untreated control
row,Substance,YAP1 (% UTC)
1,958498 (kG*kA*kG*dT*dA*dT*dG*dT*dG*dG*d[5mC]*dA*dA*kT*kA*kA; antisense) [Compound 958498],1
2,958663 (k[5mC]*kT*kA*dT*dT*dA*dG*dG*dG*dA*d[5mC]*dT*dG*kA*kA*k[5mC]; antisense) [Compound 958663],32
3,958678 (kG*kG*kA*dG*dG*dA*dG*dT*d[5mC]*dA*d[5mC]*d[5mC]*dA*kT*kG*kG; antisense) [Compound 958678],74
4,958518 (k[5mC]*k[5mC]*kA*d[5mC]*dA*dG*dT*dA*dA*dT*dA*dG*d[5mC]*kT*k[5mC]*kT; antisense) [Compound 958518],1
5,958688 (antisense kG*kG*k[5mC]*dT*dA*dT*dG*dT*dA*dG*d[5mC]*d[5mC]*dT*kT*k[5mC]*k[5mC]) [Compound 958688],82

# Same assay, conditions: Table 12; A-431 cells, 5,000 cells per well, free uptake, 2,000 nM modified oligonucleotide, approx. 48 hours; RTS36584; normalized to RIBOGREEN; Yap1 mRNA relative to untreated control cells
row,Substance,YAP1 (% UTC)
1,958644 (antisense kA*kT*kG*dA*dT*d[5mC]*dA*dA*dA*d[5mC]*d[5mC]*dT*dT*kT*kT*k[5mC]) [Compound 958644],5
2,958649 (kT*kG*k[5mC]*d[5mC]*dA*d[5mC]*dT*dG*dG*dT*dG*dA*dA*kT*kA*k[5mC]; antisense) [Compound 958649],36
3,958744 (antisense kG*k[5mC]*kA*dT*dA*d[5mC]*dT*dG*dG*dT*dG*d[5mC]*d[5mC]*k[5mC]*k[5mC]*kA) [Compound 958744],45
4,958449 (antisense k[5mC]*k[5mC]*kG*dG*dA*d[5mC]*dG*dG*d[5mC]*dG*dG*dG*d[5mC]*k[5mC]*k[5mC]*kT) [Compound 958449],84

# Same assay, conditions: Table 13; A-431 cells, 5,000 cells per well, free uptake, 2,000 nM modified oligonucleotide, approx. 48 hours; RTS36584; normalized to RIBOGREEN; Yap1 mRNA relative to untreated control cells
row,Substance,YAP1 (% UTC)
1,958490 (kG*kT*kG*dA*d[5mC]*dA*dT*dG*dA*dA*dG*d[5mC]*dA*kT*k[5mC]*kT; antisense) [Compound 958490],5
2,958760 (antisense kA*kG*kT*dA*dA*dT*dA*dG*dA*dT*d[5mC]*dT*dA*k[5mC]*kA*kA) [Compound 958760],76
3,958740 (antisense k[5mC]*kG*kG*d[5mC]*dA*d[5mC]*d[5mC]*dA*dA*dA*d[5mC]*dA*d[5mC]*k[5mC]*k[5mC]*kA) [Compound 958740],57

# Same assay, conditions: Table 26; Yap1 mRNA by 3-10-3 cEt gapmers targeting SEQ ID NO.: 1, and 2; percent of untreated control
row,Substance,YAP1 (% UTC)
1,1075980 (k[5mC]*kA*kA*dT*dA*dT*d[5mC]*d[5mC]*dT*dA*d[5mC]*dA*d[5mC]*k[5mC]*kA*kT; antisense) [compound 1075980],43
2,1074860 (kA*kA*kA*dG*dG*dT*dA*dA*d[5mC]*dA*dT*dT*dG*kG*kT*kA; antisense) [compound 1074860],9
3,1074828 (kA*kT*kA*dA*dA*dA*dT*d[5mC]*d[5mC]*dA*d[5mC]*d[5mC]*dT*kG*kA*kG; antisense) [compound 1074828],58
4,1074764 (kA*kT*kG*d[5mC]*dT*dA*d[5mC]*d[5mC]*d[5mC]*dA*dA*dT*dA*k[5mC]*kA*kA; antisense) [compound 1074764],18

# Same assay, conditions: Table 27; Yap1 mRNA by 3-10-3 cEt gapmers targeting SEQ ID NO.: 1, and 2; percent of untreated control
row,Substance,YAP1 (% UTC)
1,1075725 (kA*kT*k[5mC]*d[5mC]*dT*dA*dT*d[5mC]*dT*dG*dT*d[5mC]*dA*kG*kT*kT; antisense) [compound 1075725],18
2,1076269 (kG*kA*k[5mC]*dG*dA*dA*dA*dA*dA*dT*dA*dT*dT*k[5mC]*kT*kT; antisense) [compound 1076269],28
3,1075181 (kT*kT*kA*dT*dA*dT*dT*dA*d[5mC]*dT*dA*d[5mC]*dA*kA*k[5mC]*k[5mC]; antisense) [compound 1075181],15
4,1075949 (antisense kT*kA*kG*dG*dA*dA*d[5mC]*dA*d[5mC]*d[5mC]*dA*dA*dG*kG*kT*kT) [compound 1075949],48
5,1076013 (kG*kT*kT*dT*dA*dA*dT*dA*d[5mC]*d[5mC]*dT*d[5mC]*dT*kG*kA*k[5mC]; antisense) [compound 1076013],76
6,1076301 (kG*kT*kA*dT*dA*dA*dG*dA*d[5mC]*d[5mC]*dT*dT*dG*kG*kG*kA; antisense) [compound 1076301],34
7,1074957 (antisense kA*kA*k[5mC]*d[5mC]*d[5mC]*dG*dG*dG*dT*dT*dT*dT*dT*kG*kT*k[5mC]) [compound 1074957],102

# Same assay, conditions: Table 28; Yap1 mRNA as percent of untreated control; 3-10-3 cEt gapmers targeting SEQ ID NO.: 1, and 2
row,Substance,YAP1 (% UTC)
1,1074126 (k[5mC]*kT*kG*dG*d[5mC]*dG*dG*d[5mC]*dT*dG*d[5mC]*dG*d[5mC]*k[5mC]*kT*k[5mC]; antisense) [compound 1074126],111
2,1076302 (kA*kA*kT*dA*dA*dG*d[5mC]*d[5mC]*dT*d[5mC]*dA*d[5mC]*d[5mC]*kT*kT*kT; antisense) [compound 1076302],74
3,1075406 (antisense kA*k[5mC]*kT*dA*dT*dA*dT*dA*dA*d[5mC]*d[5mC]*dT*dG*kA*kA*k[5mC]) [compound 1075406],99
4,1076398 (antisense k[5mC]*kT*kT*dG*dA*dA*dG*dG*dG*d[5mC]*dT*dA*dT*kG*kG*kA) [compound 1076398],62
5,1075214 (kA*kA*k[5mC]*dA*dA*dT*dA*dA*dA*dG*dG*dG*dT*k[5mC]*k[5mC]*kT; antisense) [compound 1075214],45
6,1074830 (kG*kA*kG*dG*dA*dT*dA*dA*dA*dA*dT*d[5mC]*d[5mC]*kA*k[5mC]*k[5mC]; antisense) [compound 1074830],89
7,1074574 (DNA k[5mC]*kA*kT*dT*dA*dT*dG*dA*dA*d[5mC]*d[5mC]*dT*dA*k[5mC]*kT*k[5mC]) [compound 1074574],17
8,1074254 (antisense kA*kT*k[5mC]*dT*dG*dG*dG*dA*d[5mC]*dA*dG*d[5mC]*dA*kT*kG*kG) [compound 1074254],13

# Same assay, conditions: Table 29; Yap1 mRNA as percent of untreated control; 3-10-3 cEt gapmers targeting SEQ ID NO.: 1, and 2
row,Substance,YAP1 (% UTC)
1,1075183 (kA*kT*kT*dA*d[5mC]*dT*dA*dA*dG*dA*d[5mC]*dA*dG*kT*kG*kG; antisense) [compound 1075183],15
2,1074735 (kG*kA*kT*d[5mC]*dA*dA*dA*dG*d[5mC]*dA*d[5mC]*dT*dG*kT*kG*k[5mC]; antisense) [compound 1074735],117

# Same assay, conditions: Table 34; Yap1 mRNA as percent of untreated control; 3-10-3 cEt gapmers targeting SEQ ID NO: 1 and 2; single dose
row,Substance,YAP1 (% UTC)
1,1075124 (kG*kT*kA*dA*dA*dA*dA*d[5mC]*d[5mC]*dT*dG*dG*dG*kT*kT*kT; antisense) [compound 1075124],58
2,1076020 (k[5mC]*k[5mC]*k[5mC]*d[5mC]*dA*dA*d[5mC]*dA*d[5mC]*dT*dA*dA*dT*kA*kG*kG; antisense) [compound 1076020],60
3,1075572 (antisense k[5mC]*kA*kA*dT*dT*dT*dA*dA*d[5mC]*dT*dG*dT*dT*kA*k[5mC]*kA) [compound 1075572],84

# Same assay, conditions: Table 35; Yap1 mRNA as percent of untreated control; 3-10-3 cEt gapmers targeting SEQ ID NO: 1 and 2; single dose
row,Substance,YAP1 (% UTC)
1,1075765 (k[5mC]*kT*kT*dA*dA*dG*dG*d[5mC]*dA*dG*d[5mC]*dT*d[5mC]*kT*kA*kT; antisense) [compound 1075765],58
2,1076117 (k[5mC]*kT*kA*dG*dA*dA*dA*dA*dT*dA*dG*d[5mC]*d[5mC]*k[5mC]*kA*kT; antisense) [compound 1076117],15
3,1075445 (antisense kT*kA*kT*dA*dA*dA*dT*d[5mC]*d[5mC]*dT*d[5mC]*dA*dT*kG*kT*kG) [compound 1075445],84
